Structures are written as SMILES.

Common to all, as to type: in vivo
Assay [1] relates to Alopecurus myosuroides (ALOMY). Description: Pre-emergence herbicidal activity, glasshouse pot test. The conditions noted are these: Alopecurus myosuroides, 312 h, Rate 250 g/ha, evaluated after 13 days, read-out: Pre-emergence activity ALOMY (100=total damage to plant; 0=no damage to plant). The method in brief:
(§1)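 Glasshouse pots, standard soil; spray at day 1 (pre) or day 8 (post) after sowing; a.i. in acetone/water 50:50 + 0.5% Tween 20, diluted aqueous. 24/16° C, 14 h light, 65% RH. Visual damage at 13 days: 0 = none, 100 = total.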

For assay [2], the system named is Avena fatua (AVEFA). Described as above. The conditions noted are these: Avena fatua, 312 h, Rate 250 g/ha, evaluated after 13 days, read-out: Pre-emergence activity AVEFA (100=total damage to plant; 0=no damage to plant). An outline of the steps:
as §1

For assay [3], the system named is Echinochloa crus-galli (ECHCG). The description is as above. The conditions noted are these: Echinochloa crus-galli, 312 h, Rate 250 g/ha, evaluated after 13 days, read-out: Pre-emergence activity ECHCG (100=total damage to plant; 0=no damage to plant). The method in brief: as §1
Assay [4] relates to Lolium perenne (LOLPE). The description is as above. The conditions noted are these: Lolium perenne, 312 h, Rate 250 g/ha, evaluated after 13 days, read-out: Pre-emergence activity LOLPE (100=total damage to plant; 0=no damage to plant). The method in brief: as §1
For assay [5], the system named is Alopecurus myosuroides (ALOMY). Description: Post-emergence herbicidal activity, glasshouse pot test. The conditions noted are these: Alopecurus myosuroides, 312 h, rate 250 g/ha, evaluated after 13 days, read-out: Post-emergence activity ALOMY (100=total damage to plant; 0=no damage to plant). The method in brief:
as §1

Assay [6] has as its system Avena fatua (AVEFA). The assay is described as above. The conditions noted are these: Avena fatua, 312 h, rate 250 g/ha, evaluated after 13 days, read-out: Post-emergence activity AVEFA (100=total damage to plant; 0=no damage to plant). The method in brief: as §1
For assay [7], the system named is Echinochloa crus-galli (ECHCG). Described as above. The conditions noted are these: Echinochloa crus-galli, 312 h, rate 250 g/ha, evaluated after 13 days, read-out: Post-emergence activity ECHCG (100=total damage to plant; 0=no damage to plant). An outline of the steps: as §1
In assay [8] the test system is Lolium perenne (LOLPE). The description is as above. The conditions noted are these: Lolium perenne, 312 h, rate 250 g/ha, evaluated after 13 days, read-out: Post-emergence activity LOLPE (100=total damage to plant; 0=no damage to plant). An outline of the steps: as §1

On to `CCc1ccc(Oc2ccc(Cl)cn2)cc1C1=C(O)C(C)(C)OC(C)(C)C1=O` [Example A-147], for which the pest or weed control at 250 g/ha in assay [1] (pre-emergence spray) is 50%; in assay [2] (pre-emergence spray), 20%; in assay [3] (pre-emergence spray), 100%; in assay [4] (pre-emergence spray), 80%; in assay [5] (glasshouse), 80%; in assay [6] (glasshouse) it was 70%. For the same compound, the figures for the pest or weed control at 250 g/ha in assay [7] (glasshouse) and in assay [8] (glasshouse) were 100% and 90%, respectively.

For `COc1ccc2nc(Oc3ccc(C4CC4)c(C4=C(O)C(C)(C)OC(C)(C)C4=O)c3)sc2c1` [Example A-374], the pest or weed control at 250 g/ha came to 50% in assay [1] (pre-emergence); 30% in assay [2] (pre-emergence); 90% in assay [3] (pre-emergence); 100% in assay [4] (pre-emergence); 90% in assay [5]; 90% in assay [6]. The pest or weed control at 250 g/ha in assay [7] and in assay [8] was 100% each time.

Take `CCc1ccc(Oc2cnc3cc(F)ccc3n2)cc1C1=C(O)CC(C)(C)CC1=O` [Example A-298]: the pest or weed control at 250 g/ha in assay [1] (pre-emergence spray), in assay [2] (pre-emergence spray), in assay [3] (pre-emergence spray), in assay [4] (pre-emergence spray), in assay [5] (glasshouse) and in assay [6] (glasshouse) was 100% in each case. In addition, the pest or weed control at 250 g/ha in assay [7] (glasshouse) and in assay [8] (glasshouse) was 100% throughout.

With `CCc1ccc(Oc2ccc(Cl)cc2F)cc1C1=C(O)C(C)(C)OC(C)(C)C1=O` [Example A-15], the pest or weed control at 250 g/ha in assay [1] (pre-emergence spray) came to 100%; in assay [2] (pre-emergence spray), 60%; in assay [3] (pre-emergence spray), 100%; in assay [4] (pre-emergence spray), 100%; in assay [5] (glasshouse), 90%; in assay [6] (glasshouse), 70%. The pest or weed control at 250 g/ha in assay [7] (glasshouse) and in assay [8] (glasshouse) was 100% in each case.

For `CCc1ccc(Oc2ccc(Br)c(Cl)c2)cc1C1=C(O)CC(C)(C)CC1=O` [Example A-258], the pest or weed control at 250 g/ha came to 30% in assay [1] (pre-emergence spray); 10% in assay [2] (pre-emergence spray); 70% in assay [3] (pre-emergence spray); 30% in assay [4] (pre-emergence spray); 70% in assay [5] (glasshouse); 70% in assay [6] (glasshouse). Further, the pest or weed control at 250 g/ha in assay [7] (glasshouse) stood at 100%; in assay [8] (glasshouse), 80%.

With `CCc1ccc(Oc2ccc([N+](=O)[O-])c(Cl)c2)cc1C1=C(O)[C@@H]2CC[C@](C)(C1=O)C2(C)C` [Example A-316], the pest or weed control at 250 g/ha in assay [1] (pre-emergence spray) was 70%; in assay [2] (pre-emergence spray), 60%; in assay [3] (pre-emergence spray), 100%; in assay [4] (pre-emergence spray), 100%; in assay [5] (glasshouse), 50%; in assay [6] (glasshouse) it was 80%. In addition, the pest or weed control at 250 g/ha in assay [7] (glasshouse) was found to be 100%; in assay [8] (glasshouse), 40%.

With `CCc1ccc(Oc2ncccc2C(F)(F)F)cc1C1=C(O)C(C)(C)OC(C)(C)C1=O` [Example A-154], the pest or weed control at 250 g/ha in assay [1] (pre-emergence spray) amounted to 0%; in assay [2] (pre-emergence spray) it was 0%; in assay [3] (pre-emergence spray), 20%; in assay [4] (pre-emergence spray), 10%; in assay [5] (glasshouse), 20%; in assay [6] (glasshouse), 10%. Besides, the results for the pest or weed control at 250 g/ha in assay [7] (glasshouse) and in assay [8] (glasshouse) were 60% and 20%, respectively.

As for `CCc1ccc(Oc2ccc(Cl)c(Cl)c2)cc1C1=C(O)C(C)(C)OC(C)(C)C1=O` [Example A-182], the pest or weed control at 250 g/ha in assay [1] (pre-emergence spray) was found to be 30%; in assay [2] (pre-emergence spray) it was 30%; in assay [3] (pre-emergence spray), 90%; in assay [4] (pre-emergence spray) it was 80%; in assay [5] (glasshouse), 90%; in assay [6] (glasshouse), 60%. Further, the pest or weed control at 250 g/ha in assay [7] (glasshouse) is 100%; in assay [8] (glasshouse), 60%.

For the compound `CCc1ccc(Oc2cccc(C(F)(F)F)n2)cc1C1=C(O)C(C)(C)OC(C)(C)C1=O` [Example A-53], the pest or weed control at 250 g/ha in assay [1] (pre-emergence spray) is 0%; in assay [2] (pre-emergence spray), 0%; in assay [3] (pre-emergence spray), 20%; in assay [4] (pre-emergence spray) it was 40%; in assay [5] (glasshouse) it was 0%; in assay [6] (glasshouse), 0%. Moreover, the pest or weed control at 250 g/ha in assay [7] (glasshouse) is 80%; in assay [8] (glasshouse), 30%.

On to `CCc1ccc(Oc2nc(F)c(Cl)cc2Cl)cc1C1=C(O)C(C)(C)OC(C)(C)C1=O` [Example A-140], for which the pest or weed control at 250 g/ha in assay [1] (pre-emergence spray) came to 20%; in assay [2] (pre-emergence spray), 0%; in assay [3] (pre-emergence spray), 50%; in assay [4] (pre-emergence spray), 50%; in assay [5] (glasshouse), 70%; in assay [6] (glasshouse), 70%. For the same compound, the pest or weed control at 250 g/ha stood at 100% in assay [7] (glasshouse) and 70% in assay [8] (glasshouse).

In the case of `CCc1ccc(Oc2ccc(C#N)cn2)cc1C1=C(O)C(C)(C)OC(C)(C)C1=O` [Example A-150], the pest or weed control at 250 g/ha in assay [1] (pre-emergence spray) worked out at 10%; in assay [2] (pre-emergence spray) it was 10%; in assay [3] (pre-emergence spray), 80%; in assay [4] (pre-emergence spray), 70%; in assay [5] (glasshouse), 60%; in assay [6] (glasshouse) it was 70%. The figures for the pest or weed control at 250 g/ha in assay [7] (glasshouse) and in assay [8] (glasshouse) were 100% and 40%, respectively.

Turning to `CCc1ccc(Oc2cnc3ccc(Br)cc3n2)cc1C1=C(O)CC2(CCOCC2)CC1=O` [Example A-305], the pest or weed control at 250 g/ha in assay [1] (pre-emergence spray) worked out at 80%; in assay [2] (pre-emergence spray) it was 60%; in assay [3] (pre-emergence spray), 100%; in assay [4] (pre-emergence spray) it was 90%; in assay [5] (glasshouse), 100%; in assay [6] (glasshouse), 100%. The pest or weed control at 250 g/ha in assay [7] (glasshouse) and in assay [8] (glasshouse) was 100% in each case.

Consider `CCc1ccc(Oc2ccc(F)cc2F)cc1C1=C(O)C(C)(C)OC(C)(C)C1=O` [Example A-14], for which the pest or weed control at 250 g/ha in assay [1] (pre-emergence spray) turned out to be 0%; in assay [2] (pre-emergence spray), 0%; in assay [3] (pre-emergence spray), 0%; in assay [4] (pre-emergence spray), 0%; in assay [5] (glasshouse), 0%; in assay [6] (glasshouse), 10%. Further, the pest or weed control at 250 g/ha stood at 100% in assay [7] (glasshouse) and 40% in assay [8] (glasshouse).

Consider `CCc1ccc(Oc2ccc([N+](=O)[O-])c(C#N)c2)cc1C1=C(O)C(C)(C)OC(C)(C)C1=O` [Example A-196], for which the pest or weed control at 250 g/ha in assay [1] (pre-emergence spray), in assay [2] (pre-emergence spray), in assay [3] (pre-emergence spray), in assay [4] (pre-emergence spray), in assay [5] (glasshouse) and in assay [6] (glasshouse) was 0% each time. In addition, the pest or weed control at 250 g/ha was determined as 20% in assay [7] (glasshouse) and 10% in assay [8] (glasshouse).

Take `CCc1ccc(Oc2ccc(C(F)(F)F)cc2Cl)cc1C1=C(O)C(C)(C)OC(C)(C)C1=O` [Example A-99]: the pest or weed control at 250 g/ha was found to be 60% in assay [1] (pre-emergence spray); 30% in assay [2] (pre-emergence spray); 100% in assay [3] (pre-emergence spray); 100% in assay [4] (pre-emergence spray); 80% in assay [5] (glasshouse); 90% in assay [6] (glasshouse). The pest or weed control at 250 g/ha in assay [7] (glasshouse) amounted to 100%; in assay [8] (glasshouse), 80%.

Source of the values: patent US8865623B2, “Herbicidally active cyclic diones and derivatives thereof, processes for their preparation, compositions, and method of controlling weeds” (Syngenta Limited, priority 2009, dated 2014).
